Assay results: article PMC6753678, “Fueling Open Innovation for Malaria Transmission-Blocking Drugs: Hundreds of Molecules Targeting Early Parasite Mosquito Stages” (Frontiers in Microbiology, 2019)
Read-outs that look alike come from different tables or passages of the source.

Legend:
[1] = system: 3D7-strain P. falciparum asexual parasites; assay: P. falciparum asexual growth inhibition assay (Pf GIA); assay type: cell-based, Plasmodium falciparum; details: dose response confirmation; read-out: Pf asexual growth inhibition assays IC50
Procedure, shortened: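 Parasites at 0.25% parasitemia, 2% hematocrit in Albumax-supplemented RPMI were exposed to compounds in dose response for 72 h at 37°C under 5% CO2/5% O2. Viability was read as LDH activity (NBT/diaphorase, A650 after freeze-thaw). Percent inhibition was calculated against chloroquine and DMSO controls, mean of three biological replicates.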

HepG2 cells = assay: HepG2 cytotoxicity assay; details: for IC50: read-out: HepG2 cytotoxicity assay IC50, dose response confirmation; for Pb ODA (this manuscript) HepG2 cytoxicity: HepG2 cytotoxicity listed with the Pb ODA data set (this manuscript)
Procedure, shortened: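 Cells at 2,500 per well in MEM with 10% fetal bovine serum and 1% NEAA were exposed to test compounds for 48 h at 37°C, 5% CO2. Viability was read by fluorescence, with percent inhibition calculated against 50 μM doxorubicin (positive) and DMSO (negative) controls.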

[2] = system: P. berghei ookinete development; details: for % inhibition, Replicate A / % inhibition, Replicate B: primary screen at 1 μM
[3] = unified HepG2 value across the three screens
[4] = read-out: Pb ODA IC50, this manuscript
[5] = read-out: Pb Ookinete development assay IC50, dose response confirmation
[6] = read-out: Pb ODA (this manuscript) IC50, P. berghei ookinete development assay, this manuscript
[7] = HepG2 values of the three screens unified

Compound	IC50 [1] [nM]	IC50 (HepG2 cells) [nM]	Unified cytotox (HepG2 cells; [3]) [µM]	Is compound selective in assay? Pb ODA active? ([2]; 1: YES, 0: NO)	% inhibition, Replicate A [2] [%]	% inhibition, Replicate B [2] [%]	IC50 [2, 4] [nM]	IC50 [2, 5] [nM]	Pb ODA (this manuscript) HepG2 cytoxicity (HepG2 cells) [µM]	Is compound selective in assay? Pb ODA active? [2]	IC50 [2, 6] [nM]	Unified cytotox (HepG2 cells; [7]) [µM]	HepG2 cytoxicity (Pb ODA, this manuscript) (HepG2 cells) [µM]
CCNC(=O)Nc1ccc(-c2cnc(N)c(-c3nc4ccc(OC)cc4[nH]3)c2)cc1 [TCMDC-135321]	364	6680	6.68	0 (0: NO)	44.00	70.87	2330	2330					
COc1ccc2nc(-c3cc(-c4ccc(NC(=O)C(C)C)cc4)cnc3N)[nH]c2c1 [TCMDC-135322]	277	8610	8.61	1 (1: YES)	29.63	78.93	420	423					
COc1ccc2nc(-c3cc(-c4ccc(NC(C)=O)cc4)cnc3N)[nH]c2c1 [TCMDC-135365]	1280	12000	12.02	1 (1: YES)	88.78	104.70	440	442					
COc1cc(F)c2ncc(C#N)c(CCN3CCC(NCc4ccc5c(c4)OCCO5)CC3)c2c1.Cl [TCMDC-135367]	640	38900	38.90	1 (1: YES)	88.34	59.17	2170	2170					
Cc1cc(SC(C)(C)C)cc2c(Cl)c(C(N)=O)cnc12 [TCMDC-135415]	69	1360	1.36	0 (0: NO)	28.78	60.54	2710	2710					
Cc1[nH]c2ccc(-c3ccccc3)cc2c(=O)c1Br [TCMDC-135426]	136	100000	100.00	1 (1: YES)	84.59	99.51	1250	1250					
C=Cc1ccc(-c2c(C)[nH]c(C)c(Br)c2=O)cc1 [TCMDC-135433]	433	57500			31.67	64.44		1240	57.54	1 (key: 1: YES; 0: NO)	1240		
CCCCc1ccc(-c2ccc3[nH]c(C)c(Br)c(=O)c3c2)cc1 [TCMDC-135463]	77	10000	10.00	0 (0: NO)	56.53	70.28	2990	3000					
COc1ccc2ncc(F)c(CCN3CCC(NCc4ccc5c(c4)CCO5)CC3)c2n1.Cl [TCMDC-135491]	879	31600			14.40	53.74		3390	31.62	0 (key: 1: YES; 0: NO)	3390		
O=C(NCC1CC1)C1CCN(C(c2ccc(Cl)cc2)c2ccc(Cl)cc2)CC1 [TCMDC-135522]	305	100000	100.00	1 (1: YES)	38.16	71.31		1590					
Cc1[nH]c(C)c(-c2ccc(Nc3ccc(C(F)(F)F)cn3)cc2)c(=O)c1Br [TCMDC-135546]	14	980			85.12	90.38		5.45	0.98	1 (key: 1: YES; 0: NO)			
Cc1[nH]c(C)c([N+](=O)[O-])c(=O)c1-c1ccc(Oc2ccc(OC(F)(F)F)cc2)cc1 [TCMDC-135555]	177	100000			67.14	51.32		2810	100.00	1 (key: 1: YES; 0: NO)	2810		
COc1cc(F)c2ncc(Cl)c(CCN3CCC(NCc4ccc5c(c4)NC(=O)CS5)CC3)c2c1.Cl [TCMDC-135620]	15	10600	10.59	1 (1: YES)	131.37	63.52	470	467					
COc1cc(F)c2ncc(Cl)c(CCN3CCC(NCc4ccc5c(n4)NC(=O)CO5)CC3)c2c1.Cl [TCMDC-135621]	2590	27200			69.33	64.08		1270	27.23	1 (key: 1: YES; 0: NO)			
COc1cc(F)c2ncc(Cl)c(CCN3CCC(NCc4ccc5c(c4)NC(=O)CO5)CC3)c2c1.Cl [TCMDC-135623]	339	12300			70.96	86.73		541	12.30	1 (key: 1: YES; 0: NO)	540		
COc1ccc2ncc(F)c(CCN3C4CCC3CC(NCc3ccc5c(c3)OCCO5)C4)c2n1.Cl (stereo not drawn) [TCMDC-135638]	995	39800			30.43	54.56		4240	39.81	0 (key: 1: YES; 0: NO)	4240		
COc1ccc2ncc(C#N)c(CCN3CCC(NCc4ccc5c(c4)NC(=O)CO5)CC3)c2c1.Cl [TCMDC-135645]	553	38900			122.09	92.16		457	38.90	1 (key: 1: YES; 0: NO)	460		
COc1ccc(CCc2ccc(-c3c(C)[nH]c(C)c(Cl)c3=O)cc2)cc1 [TCMDC-135654]	20	100000		1 (1: YES)	86.19	104.99	140	143				100.00	
COc1ccc(C#Cc2ccc(-c3c(C)[nH]c(C)c(Cl)c3=O)cc2)cc1 [TCMDC-135655]	73	100000		1 (1: YES)	78.44	70.65	1160	1160				100.00	
Cc1[nH]c(C)c(-c2ccc(OCc3cccc(C(F)(F)F)c3)nc2)c(=O)c1Br [TCMDC-135656]	41	8610		1 (1: YES)	92.61	102.80	110	106				8.61	8.61
Cc1[nH]c(C)c(-c2ccc(OCc3ccc(F)cc3)nc2)c(=O)c1Br [TCMDC-135657]	173	100000		1 (1: YES)	61.60	80.51	600	597				100.00	
Cc1[nH]c(C)c(-c2ccc(OCc3cc(F)cc(F)c3)nc2)c(=O)c1Cl [TCMDC-135676]	36	7850		0 (0: NO)	78.17	102.44	2070	2070				7.85	7.85
Cc1[nH]c(C)c(-c2ccc(-c3ccc(OC(F)(F)F)cc3)nc2)c(=O)c1Cl [TCMDC-135677]	397	23700		1 (1: YES)	103.64	93.64	270	265				23.71	23.71
Cc1[nH]c(C)c(-c2ccc(CCc3ccc(N)cc3)cc2)c(=O)c1Cl [TCMDC-135678]	279	100000		1 (1: YES)	46.90	71.02	1090	1090				100.00	
Cc1[nH]c(C)c(-c2ccc(OCc3cc(F)cc(F)c3)nc2)c(=O)c1Br [TCMDC-135683]	188	25400		1 (1: YES)	82.45	85.99	410	409				25.41	25.41
